pIC50: −log10 of the molar value.
Columns and labels:
[1] = target: 5-HT2A receptors (Rattus norvegicus, UniProt P14842); experiment: in-vitro affinity to 5-HT2A receptors, displacement of [3H]ketanserine (Example A1); format: binding; conditions: read-out: HT2A IC50
From the text: The 5-HT2A receptors are exposed both to [^3H]ketanserine (a substance which is known for its affinity to the receptor) and also to the test compound. The decrease in the affinity of [^3H]ketanserine to the receptor is an indication of the affinity of the test substance to the 5-HT2A receptor.

[2] = target: T1, 5 HT2C receptor (Homo sapiens, UniProt P28335); experiment: affinity to the 5 HT2C receptor; format: binding
T1 sequence (P28335 33-458): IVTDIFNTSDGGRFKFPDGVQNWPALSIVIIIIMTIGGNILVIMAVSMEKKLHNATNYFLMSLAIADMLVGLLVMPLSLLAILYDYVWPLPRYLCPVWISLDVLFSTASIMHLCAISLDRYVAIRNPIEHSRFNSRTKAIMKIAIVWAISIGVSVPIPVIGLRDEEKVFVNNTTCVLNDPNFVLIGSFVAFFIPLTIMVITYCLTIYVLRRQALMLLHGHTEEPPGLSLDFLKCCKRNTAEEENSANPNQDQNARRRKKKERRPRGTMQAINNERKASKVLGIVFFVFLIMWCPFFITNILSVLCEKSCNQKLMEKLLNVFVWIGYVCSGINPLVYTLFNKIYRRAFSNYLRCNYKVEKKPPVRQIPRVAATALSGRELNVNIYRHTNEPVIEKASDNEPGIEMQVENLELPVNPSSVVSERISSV

Chain of 5-HT2A receptors (P14842 whole entry): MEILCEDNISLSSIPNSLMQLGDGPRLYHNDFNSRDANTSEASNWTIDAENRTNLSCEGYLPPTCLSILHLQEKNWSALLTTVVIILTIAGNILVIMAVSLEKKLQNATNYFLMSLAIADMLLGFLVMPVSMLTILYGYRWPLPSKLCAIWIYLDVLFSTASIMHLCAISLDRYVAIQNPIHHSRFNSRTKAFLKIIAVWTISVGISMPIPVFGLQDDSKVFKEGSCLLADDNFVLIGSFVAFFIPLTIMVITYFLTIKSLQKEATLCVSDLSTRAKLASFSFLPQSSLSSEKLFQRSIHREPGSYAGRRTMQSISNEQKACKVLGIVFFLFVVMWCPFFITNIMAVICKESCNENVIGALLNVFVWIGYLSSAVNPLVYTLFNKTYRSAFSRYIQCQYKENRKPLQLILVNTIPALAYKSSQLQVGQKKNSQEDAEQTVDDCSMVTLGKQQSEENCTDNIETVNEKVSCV

Row | SMILES | pIC50 [1] | pIC50 [2]
1 | CN1CC2CC1CN2Cc1cnn(-c2ccc(-c3ccccc3)cc2)c1-c1ccccc1F (stereo not shown) [Example 977, 2-[1-Biphenyl-4-yl-5-(2-fluorophenyl)-1H-pyrazol-4-ylmethyl]-5-methyl-2,5-diazabicyclo-[2.2.1]heptane] | 7.03 | 6.17
2 | CN1CCN(Cc2cnn(-c3ccc(C(F)(F)F)cc3)c2-c2ccccc2F)CC1 [Example 990, 1-[5-(2-Fluorophenyl)-1-(4-trifluoro-methyl-phenyl)-1H-pyrazol-4-ylmethyl]-4-methyl-piperazine] | 6.88 | 6.31
3 | CC(C)(C)OC(=O)N1CCN(Cc2cnn(-c3ccc(-c4ccccc4)cc3)c2-c2ccccc2F)CC1 [Example 971, tert-Butyl 4-[1-biphenyl-4-yl-5-(2-fluoro-phenyl)-1H-pyrazol-4-ylmethyl]piperazine-1-carboxylate] | 7.09 | 6.00
4 | Fc1ccccc1-c1c(CN2CCc3ccccc3C2)cnn1-c1ccc(-c2ccccc2)cc1 [Example 964, 2-[1-Biphenyl-4-yl-5-(2-fluoro-phenyl)-1H-pyrazol-4-ylmethyl]-1,2,3,4-tetrahydro-iso-quinoline] | 7.15 | 6.00
5 | CN1CCN(Cc2cnn(-c3ccc(-c4ccccc4F)cc3)c2-c2ccc(F)cc2)CC1 [Example 1013, 1-[1-(2′-Fluorobiphenyl-4-yl)-5-(4-fluoro-phenyl)-1H-pyrazol-4-ylmethyl]-4-methyl-piperazine] | 6.68 | 6.00
6 | CC(C)(C)OC(=O)N1CCN(Cc2cnn(-c3ccc(C(F)(F)F)cc3)c2-c2ccccc2F)CC1 [Example 896, tert-Butyl 4-[5-(2-fluorophenyl)-1-(4-trifluoro-methylphenyl)-1H-pyrazol-4-ylmethyl]-piperazine-1-carboxylate] | 8.10 | 4.37
7 | CN(C)CCN(C)Cc1cnn(-c2ccc(-c3ccccc3)cc2)c1-c1ccccc1F [Example 912, N-[1-Biphenyl-4-yl-5-(2-fluorophenyl)-1H-pyrazol-4-ylmethyl]-N,N′,N′-trimethylethane-1,2-diamine] | 7.70 | 6.04
8 | CC(C)N1CCN(Cc2cnn(-c3ccc(-c4ccc(F)cc4)cc3)c2-c2ccccc2Cl)CC1 [Example 997, 1-[5-(2-Chlorophenyl)-1-(4′-fluoro-biphenyl-4-yl)-1H-pyrazol-4-ylmethyl]-4-isopropylpiperazine] | 6.80 | 6.00
9 | CN1CCN(Cc2cnn(-c3ccc(-c4ccc(F)cc4)cc3)c2-c2ccc(F)cc2)CC1 [Example 923, 1-[1-(4′-Fluorobiphenyl-4-yl)-5-(4-fluoro-phenyl)-1H-pyrazol-4-ylmethyl]-4-methylpiperazine] | 7.60 | 6.12
10 | Fc1ccc(-c2ccc(-n3ncc(CN4CCN(C5CCCC5)CC4)c3-c3ccccc3Cl)cc2)cc1 [Example 1027, 1-[5-(2-Chlorophenyl)-1-(4′-fluoro-biphenyl-4-yl)-1H-pyrazol-4-ylmethyl]-4-cyclopentylpiperazine] | 6.59 | 6.00
11 | OC1CCN(Cc2cnn(-c3ccc(-c4ccccc4)cc3)c2-c2ccccc2F)C1 (stereo not shown) [Example 904, 1-[1-Biphenyl-4-yl-5-(2-fluorophenyl)-1H-pyrazol-4-ylmethyl]pyrrolidin-3-ol] | 7.85 | 5.70
12 | CN1CCN(Cc2cnn(-c3ccc(-c4ccsc4)cc3)c2-c2ccco2)CC1 [Example 891, 1-[5-Furan-2-yl-1-(4-thiophen-3-ylphenyl)-1H-pyrazol-4-ylmethyl]-4-methylpiperazine] | 8.35 | 6.68
13 | CN(C)CCc1cnn(-c2ccc(-c3ccc(F)cc3)cc2)c1-c1ccccc1F [Example 890, {2-[1-(4′-Fluorobiphenyl-4-yl)-5-(2-fluoro-phenyl)-1H-pyrazol-4-yl]ethyl}dimethylamine] | 8.82 | 7.56
14 | COCCCNCc1cnn(-c2ccc(-c3ccccc3)cc2)c1-c1ccccc1F [Example 935, [1-Biphenyl-4-yl-5-(2-fluorophenyl)-1H-pyrazol-4-ylmethyl]-(3-methoxypropyl)amine] | 7.47 | 6.00
15 | CC(C)N1CCN(Cc2cnn(-c3ccc(-c4ccc(F)cc4)cc3)c2-c2ccc(Cl)cc2)CC1 [Example 1054, 1-[5-(4-Chlorophenyl)-1-(4′-fluoro-biphenyl-4-yl)-1H-pyrazol-4-ylmethyl]-4-isopropylpiperazine] | 6.36 | 6.00
16 | Fc1ccc(CCN2CCN(Cc3cnn(-c4ccccn4)c3-c3ccccc3F)CC2)c(F)c1 [Example 919, 1-[2-(2,4-Difluorophenyl)ethyl]-4-[5-(2-fluoro-phenyl)-1-pyridin-2-yl-1H-pyrazol-4-ylmethyl]-piperazine] | 7.64 | 6.00

Row | SMILES | pIC50 [1] | pIC50 [2]
17 | CCN1CCN(Cc2cnn(-c3ccc(-c4ccccc4)cc3)c2-c2ccccc2F)CC1 [Example 927, 1-[1-Biphenyl-4-yl-5-(2-fluoro-phenyl)-1H-pyrazol-4-ylmethyl]-4-ethylpiperazine] | 7.55 | 6.00
18 | CCN1CCN(Cc2cnn(-c3ccc(-c4ccc(F)cc4)cc3)c2-c2ccc(Cl)cc2)CC1 [Example 1037, 1-[5-(4-Chlorophenyl)-1-(4′-fluoro-biphenyl-4-yl)-1H-pyrazol-4-ylmethyl]-4-ethylpiperazine] | 6.51 | 6.00
19 | CN1CCN(Cc2cnn(-c3ccc(-c4cc(F)ccc4F)cc3)c2-c2ccccc2)CC1 [Example 981, 1-[1-(2′,5′-Difluorobiphenyl-4-yl)-5-phenyl-1H-pyrazol-4-ylmethyl]-4-methylpiperazine] | 6.96 | 6.00
20 | COc1cccc(-c2ccc(-n3ncc(CN4CCN(C)CC4)c3-c3ccccc3F)cc2)c1 [Example 930, 1-[5-(2-Fluorophenyl)-1-(3′-methoxy-biphenyl-4-yl)-1H-pyrazol-4-ylmethyl]-4-methyl-piperazine] | 7.54 | 6.16
21 | CN1CCN(Cc2cnn(-c3ccc(-c4ccc(F)cc4)cc3)c2-c2ccccc2)CC1 [Example 900, 1-[1-(4′-Fluorobiphenyl-4-yl)-5-phenyl-1H-pyrazol-4-ylmethyl]-4-methylpiperazine] | 7.89 | 6.51
22 | CN1CCN(Cc2cnn(-c3ccc(-c4ccccc4)cc3)c2-c2cccnc2)CC1 [Example 1035, 1-(1-Biphenyl-4-yl-5-pyridin-3-yl-1H-pyrazol-4-ylmethyl)-4-methylpiperazine] | 6.54 | 6.00
23 | NCc1cnn(-c2ccc(-c3ccccc3)cc2)c1-c1ccccc1 [Example 915, C-(1-Biphenyl-4-yl-5-phenyl-1H-pyrazol-4-yl)-methylamine] | 7.68 | 6.04
24 | Fc1ccccc1-c1c(CNc2ccon2)cnn1-c1ccc(-c2ccccc2)cc1 [Example 1022, [1-Biphenyl-4-yl-5-(2-fluorophenyl)-1H-pyrazol-4-ylmethyl]isoxazol-3-ylamine] | 6.62 | 6.00
25 | COc1ccc(-c2ccc(-n3ncc(CN4CCN(C)CC4)c3-c3ccccc3F)cc2)cc1 [Example 895, 1-[5-(2-Fluorophenyl)-1-(4′-methoxy-biphenyl-4-yl)-1H-pyrazol-4-ylmethyl]-4-methyl-piperazine] | 8.12 | 5.94
26 | CN1CCN(CCc2cnn(-c3ccc(-c4ccc(F)cc4)cc3)c2-c2ccccc2F)CC1 [Example 921, 1-{2-[1-(4′-Fluorobiphenyl-4-yl)-5-(2-fluoro-phenyl)-1H-pyrazol-4-yl]ethyl}-4-methylpiperazine] | 7.63 | 6.14
27 | CC(=O)NC1CCN(Cc2cnn(-c3ccc(-c4ccccc4)cc3)c2-c2ccccc2F)C1 (stereo not shown) [Example 929, N-{1-[1-Biphenyl-4-yl-5-(2-fluoro-phenyl)-1H-pyrazol-4-ylmethyl]pyrrolidin-3-yl}acetamide] | 7.54 | 6.00
28 | CN1CCN(Cc2cnn(-c3ccc(-c4ccccc4)cc3)c2-c2ccccc2F)CC1 [Example 926, 1-[1-Biphenyl-4-yl-5-(2-fluoro-phenyl)-1H-pyrazol-4-ylmethyl]-4-methylpiperazine] | 7.56 | 6.22
29 | CN(C)CCN(C)Cc1cnn(-c2ccc(-c3ccc(F)cc3)cc2)c1-c1ccccc1Cl [Example 946, N-[5-(2-chlorophenyl)-1-(4′-fluoro-biphenyl-4-yl)-1H-pyrazol-4-ylmethyl]-N,N′,N′-trimethyl-ethane-1,2-diamine] | 7.36 | 6.31
30 | CCN1CCN(CCc2cnn(-c3ccc(-c4ccc(F)cc4)cc3)c2-c2ccccc2F)CC1 [Example 928, 1-Ethyl-4-{2-[1-(4′-fluorobiphenyl-4-yl)-5-(2-fluorophenyl)-1H-pyrazol-4-yl]ethyl}piperazine] | 7.55 | 5.89
31 | CN1CCN(Cc2cnn(-c3ccc(-c4cc(F)ccc4F)cc3)c2-c2ccc(F)cc2)CC1 [Example 1021, 1-[1-(2′,5′-Difluorobiphenyl-4-yl)-5-(4-fluoro-phenyl)-1H-pyrazol-4-ylmethyl]-4-methyl-piperazine] | 6.62 | 6.00
32 | CN1CCN(Cc2cnn(-c3ccc(-c4ccccc4)cn3)c2-c2ccccc2F)CC1 [Example 922, 1-[5-(2-Fluorophenyl)-1-(5-phenyl-pyridin-2-yl)-1H-pyrazol-4-ylmethyl]-4-methylpiperazine] | 7.62 | 6.18

From patent publication US20060264419A1 (priority 2003, published 2006)
